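Exposure lasted 48 hours, with cells grown in 96-well plates and compounds tested at five concentrations. Abbreviation: GI50, concentration required for 50% inhibition of growth.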 Activity calls are given as the source filed them. Rule as the data show it: active = GI50 up to about 1.1 µM and inactive = higher.
Columns and labels:
Test in all cases: growth of human tumour cells (NCI), 48 h
786-0 = test system: 786-0
CAKI-1 = test system: CAKI-1
EKVX = test system: EKVX
HCT-116 = test system: HCT-116
K562 = test system: K562
M14 = test system: M14
MOLT-4 = test system: MOLT-4
OVCAR-4 = test system: OVCAR-4
OVCAR-8 = test system: OVCAR-8
SF-268 = test system: SF-268
SF-539 = test system: SF-539
SK-MEL-5 = test system: SK-MEL-5
SNB-75 = test system: SNB-75
SR = test system: SR
SW-620 = test system: SW-620
U-251 = test system: U-251

Structure (SMILES) | GI50 (786-0) | GI50 (CAKI-1) | GI50 (EKVX) | GI50 (HCT-116) | GI50 (K562) | GI50 (M14) | GI50 (MOLT-4) | GI50 (OVCAR-4) | GI50 (OVCAR-8) | GI50 (SF-268) | GI50 (SF-539) | GI50 (SK-MEL-5) | GI50 (SNB-75) | GI50 (SR) | GI50 (SW-620) | GI50 (U-251)
CCOC(=O)C1C(c2ccccc2)=C(c2ccccc2)C(c2ccccc2)=C1c1ccccc1 | 21 µM (inactive) | > 65.3 µM (inactive) | > 88.3 µM (inactive) | 20.8 µM (inactive) | 35 µM (inactive) | 57.4 µM (inactive) | 50 µM (inactive) | 18.2 µM (inactive) | 25.7 µM (inactive) | 43 µM (inactive) | 29.7 µM (inactive) | 46.7 µM (inactive) | 13.2 µM (inactive) | 46.8 µM (inactive) | 81.5 µM (inactive) | 21.2 µM (inactive)
O=C(O)CS [THIOGLYCOLIC ACID] | > 100 µM (inactive) | > 100 µM (inactive) | > 100 µM (inactive) | > 100 µM (inactive) | > 100 µM (inactive) | – | > 100 µM (inactive) | > 100 µM (inactive) | – | > 100 µM (inactive) | > 100 µM (inactive) | > 100 µM (inactive) | > 100 µM (inactive) | > 100 µM (inactive) | > 100 µM (inactive) | > 100 µM (inactive)
CCOC(=O)N1c2c(ccn2C)-c2ccn(C)c2N1C(=O)OCC | 11.1 µM (inactive) | 18.3 µM (inactive) | – | 14.8 µM (inactive) | 4.2 µM (inactive) | 15.1 µM (inactive) | 6.18 µM (inactive) | > 10 µM (inactive) | 14.1 µM (inactive) | 19.1 µM (inactive) | 20 µM (inactive) | > 100 µM (inactive) | 15.5 µM (inactive) | 15.8 µM (inactive) | 15.2 µM (inactive) | –
Cc1ccc(-c2c(N)nc(NC#N)nc2CCC(=O)Nc2ccccc2[N+](=O)[O-])cc1 | > 100 µM (inactive) | > 100 µM (inactive) | > 100 µM (inactive) | > 100 µM (inactive) | > 100 µM (inactive) | > 100 µM (inactive) | > 100 µM (inactive) | > 100 µM (inactive) | – | > 100 µM (inactive) | > 100 µM (inactive) | > 100 µM (inactive) | > 100 µM (inactive) | > 100 µM (inactive) | > 100 µM (inactive) | > 100 µM (inactive)
CCOc1ccc(NC2=NC(=O)C(CC(=O)Nc3ccc(Cl)cc3Cl)S2)cc1 (stereo unspecified) | > 100 µM (inactive) | > 100 µM (inactive) | > 100 µM (inactive) | – | > 100 µM (inactive) | > 100 µM (inactive) | 43.8 µM (inactive) | > 100 µM (inactive) | > 100 µM (inactive) | > 100 µM (inactive) | > 100 µM (inactive) | > 100 µM (inactive) | > 100 µM (inactive) | – | > 100 µM (inactive) | > 100 µM (inactive)
CCOC(=O)N[C@H]1CCc2cc(O)c(OC)c(OC)c2-c2ccc(SC)c(=O)cc21 | 0.0304 µM (active) | 0.0266 µM (active) | 0.483 µM (active) | < 0.0138 µM (active) | 0.0136 µM (active) | < 0.01 µM (active) | 0.03 µM (active) | 8 µM (inactive) | 0.0301 µM (active) | 0.0207 µM (active) | 0.0137 µM (active) | 0.0127 µM (active) | < 0.01 µM (active) | 0.0345 µM (active) | < 0.0137 µM (active) | < 0.0162 µM (active)
O=C(O)CN(c1ccccc1)S(=O)(=O)c1ccc(Cl)cc1 | > 100 µM (inactive) | > 100 µM (inactive) | > 100 µM (inactive) | – | > 100 µM (inactive) | > 100 µM (inactive) | > 100 µM (inactive) | > 100 µM (inactive) | > 100 µM (inactive) | > 100 µM (inactive) | > 100 µM (inactive) | – | 59 µM (inactive) | – | > 100 µM (inactive) | > 100 µM (inactive)
C[C@@H]1O[C@@H](O[C@H]2[C@H](Oc3cc(O)c4c(=O)cc(-c5ccc(O)cc5)oc4c3)O[C@H](CO)[C@@H](O)[C@@H]2O)[C@H](O)[C@H](O)[C@H]1O [RHOIFOLIN] | > 100 µM (inactive) | > 100 µM (inactive) | > 100 µM (inactive) | > 100 µM (inactive) | > 100 µM (inactive) | > 100 µM (inactive) | > 100 µM (inactive) | > 100 µM (inactive) | > 100 µM (inactive) | > 100 µM (inactive) | > 100 µM (inactive) | > 100 µM (inactive) | > 100 µM (inactive) | – | – | > 100 µM (inactive)
COc1cc2ccc(CC(=O)O)cc2cc1OC | > 100 µM (inactive) | > 100 µM (inactive) | > 100 µM (inactive) | > 100 µM (inactive) | > 100 µM (inactive) | > 100 µM (inactive) | > 100 µM (inactive) | > 100 µM (inactive) | > 100 µM (inactive) | > 100 µM (inactive) | – | > 100 µM (inactive) | > 100 µM (inactive) | > 100 µM (inactive) | > 100 µM (inactive) | > 100 µM (inactive)
